# Literature values, collected in publication PMC7114187 (Antiviral Research, 2008).
# Tested on: NA^WT(WSN) with H274Y mutation
# Details: cited from earlier work
smiles,measurement,value
"CCOC(=O)C1=C[C@@H](OC(CC)CC)[C@H](NC(C)=O)[C@@H](N)C1 [Oseltamivir, oseltamivir]",fold increase in the IC50 by H274Y mutation,754 fold
